Measurements: publication PMC9073274, “The toxic effects of alizarin red S on catalase at the molecular level” (RSC Advances, 2019)

Experiments:
[1] = molecular target: T1, CAT (catalase from bovine liver) (Bos taurus, UniProt P00432); test: isothermal titration calorimetry, one-site model; format: binding; conditions: read-out: K (M^-1)
T1 construct: native commercial enzyme from bovine liver (Beijing Solarbio); heme homotetramer, 506 residues per subunit
T1 sequence (P00432 2-527): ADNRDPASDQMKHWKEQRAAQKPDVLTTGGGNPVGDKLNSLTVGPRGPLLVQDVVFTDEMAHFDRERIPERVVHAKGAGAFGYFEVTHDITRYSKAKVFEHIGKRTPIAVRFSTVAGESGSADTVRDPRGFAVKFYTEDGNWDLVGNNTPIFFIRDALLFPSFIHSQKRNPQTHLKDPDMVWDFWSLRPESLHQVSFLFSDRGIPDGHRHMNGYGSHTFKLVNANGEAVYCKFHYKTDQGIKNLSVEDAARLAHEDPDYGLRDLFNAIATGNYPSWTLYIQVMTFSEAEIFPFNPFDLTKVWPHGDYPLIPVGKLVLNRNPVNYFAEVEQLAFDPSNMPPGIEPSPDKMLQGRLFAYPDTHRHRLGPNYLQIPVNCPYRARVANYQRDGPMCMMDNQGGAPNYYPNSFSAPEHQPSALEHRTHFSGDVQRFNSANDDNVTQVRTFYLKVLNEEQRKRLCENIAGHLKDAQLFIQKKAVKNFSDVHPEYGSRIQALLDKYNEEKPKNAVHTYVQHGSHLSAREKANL
Excerpt: isothermal titration calorimetry, one-site model on CAT (catalase from bovine liver)

[2] = molecular target: T1, CAT (catalase from bovine liver); test: H2O2 decomposition, absorbance at […] nm; format: biochemical

- Kd [1]: 39.2 µM
- inhibition at 5 µM [2]: 23.8%
SMILES: O=C1c2ccccc2C(=O)c2c1cc(S(=O)(=O)O)c(O)c2O [Alizarin red S]
